The values that follow come from patent US20120231025A1 (priority 2009, published 2012).

Assay [1] has as its system bone marrow cells. The conditions noted are these: bone marrow cells irradiated with 1 Gy, injected into lethally irradiated recipients (8 Gy); peptide 10 ug per kg intraperitoneally 15-30 minutes after the cells; cited from earlier work.
Assay [2] relates to influenza of the H1N2, H3N2, and B strains. The arrangement: species or system Balb/c mice. The conditions noted are these: mouse, in vivo.
In assay [3] the test system is allogeneic lymphocytes. The conditions noted are these: H-2d anti H-2b, cited from earlier work.
In assay [4] the test system is spleen and thymus. Conditions: mice irradiated 2 Gy, peptide 10 μg/kg, cited from earlier work.
Assay [5] relates to T-cells in spleen. Conditions: peptide 10 μg/kg, cited from earlier work.
In assay [6] the test system is peripheral blood mononuclear cells (PBMC). The assay can be described thus: MIMIC peripheral tissue equivalent (PTE) assay. The format is cell-based, human.
Assay [7] relates to antibody forming cells. Conditions: cited from earlier work.
The subject of assay [8] is influenza antigen. The format is in vivo, Balb/c mice.
For assay [9], the system named is hematopoietic cells. The conditions noted are these: cited from earlier work.

Entries after “also recorded” stand apart in the source; their conditions may differ. Read-outs that look alike come from different tables or passages of the source.

Take Lys-Glu-(Trp)-OH: the “Number of CFU-S” value in [1] is listed as 5.9 ± 0.5.

In the case of Ile-Glu-Trp-NH2, in [1], the “Number of CFU-S” value was 7.9 ± 0.4.

On to iGlu-Trp-OH, for which the “Number of CFU-S” value in assay [1] was 10.1 ± 0.5.

Take Lys-Glu-(Trp-NH2)-OH: the “Number of CFU-S” value in assay [1] is 5.9 ± 0.4.

As for Tyr-Glu-Trp-OH, the “Number of CFU-S” value in assay [1] is given as 7.3 ± 0.4.

In the case of Lys-Glu-Trp-OH, in assay [1], the “Number of CFU-S” value was 6.2 ± 0.4.

In the case of H-L-Ile-L-Glu-L-Trp-OH [Neogen], the HI titer result is “higher response than any of the other groups; also recorded: higher HI response” in assay [2] and “no HI titer” in assay [2] (sc). Besides, in assay [1], the “Number of CFU-S” value is recorded as 11.5 ± 0.3. In addition, the “Proliferation of allogeneic lymphocytes in MLC” value is on record as “negligible inhibition of the proliferation” in assay [3] (peptide 0.1 μg/mL); “stimulated proliferation of the allogeneic lymphocytes” in [3] (peptide 1, 10, and 20 μg/mL). Moreover, the “Karyocyte count in thymus” value in assay [4] (3 and 4 injections) is given as “a certain growth of the karyocyte count in thymus”. Moreover, the “Karyocyte count in spleen per mg of organ weight” value in assay [4] (one and four injections) is recorded as “increase in the karyocyte count in spleen”. The T-cell count result in assay [5] (intact mice, 3 or 4 times) is listed as “being the same as it was”. For the same substance, the “T-cell count in spleen” value in assay [5] (mice irradiated 2 Gy, 1 to 4 injections, especially three or four) is listed as “grew in all mice who received the peptide injections”. Moreover, in assay [6], the “Cell-surface expression of HLA-DR on dendritic cells” value is “primed for antigen presentation”. The “Dendritic cells migrating (reverse transmigrating) across the HUVEC layer” value in assay [6] (Neogen alone, preliminary) is listed as “fewer dendritic cells migrating across the HUVEC layer; also recorded: reduced the number of cells found to reverse transmigrate”; in assay [6] (Neogen plus antigen, preliminary), “fewer dendritic cells migrating across the HUVEC layer; also recorded: reduced the number of cells found to reverse transmigrate”. Also, the “Number of dendritic cells recovered” value in [6] (Neogen alone, preliminary) is “did not”; in assay [6] (Neogen in the presence of antigen, preliminary), “increased the number of dendritic cells recovered from the system”. Moreover, the “Differentiation of donor PBMCs into macrophages and dendritic cells” value in assay [6] (as little as 1 ug/mL of Neogen in the presence of antigen, preliminary) was “enhanced the ability of donor PBMCs to differentiate into macrophages and dendritic cells”. Also, in assay [7] (intact mice, peptide 10 μg/kg intramuscularly, 3 or 4 times), the “AFC increase, humoral response to SE” value is reported as 5 times. Also, the “Number of antibody forming cells” value in assay [7] (mice irradiated 2 Gy, peptide 10 μg/kg, 3 and 4 injections) is “practically doubled”. Besides, in assay [8] (low-dose Neogen with Vaxigrip compared with Vaxigrip alone), the “IgG1 levels (area-under-the-curve analysis)” value is “statistically significant increase in IgG1 levels”. In assay [8] (mouse, in vivo), the IgG1 response result is given as “progressively lower IgG1 responses”. In [8] (mouse, in vivo), the IgG2a response entry is listed as “higher IgG2a responses”. Besides, the Hemoglobin levels result in assay [9] (animals first irradiated and then treated, U.S. Pat. No. 6,159,950, Example 8) is listed as “more rapidly restored hemoglobin levels”. Further, in [9] (irradiated mice, U.S. Pat. No. 6,159,950, Example 4), the “Antibody forming cells (AFC) after challenge with sheep erythrocytes” value is “making antibody forming cells (AFC) against the challenge”.

As to Pyro-Glu-Trp-OH, the “Number of CFU-S” value in [1] is 9.3 ± 0.4.

Turning to Ile-Glu-(Trp)-OH, in assay [1], the “Number of CFU-S” value is given as 8.5 ± 0.5.

Turning to Phe-Glu-Trp-OH, the “Number of CFU-S” value in assay [1] is reported as 6.6 ± 0.3.

As for Leu-Glu-Trp-OH, the “Number of CFU-S” value in assay [1] was 6.5 ± 0.5.

Consider Val-Glu-Trp-OH, for which, in assay [1], the “Number of CFU-S” value is listed as 8.2 ± 0.3.

Consider Ala-Glu-Trp-OH, for which the “Number of CFU-S” value in [1] is recorded as 8.7 ± 0.4.

Turning to Glu-Trp-OH, the “Number of CFU-S” value in [1] is 10.5 ± 0.3.
